From ChEMBL document CHEMBL2021881, “Ianthellamide A, a selective kynurenine-3-hydroxylase inhibitor from the Australian marine sponge Ianthella quadrangulata” (Bioorg Med Chem Lett, 2012)
Active and inactive are the calls of the source. No cut-off for these calls is given here.

What was measured:
Rattus norvegicus [1] = test: Inhibition of kynurenine-3-hydroxylase in rat brain assessed as increase in Increase in extracellular kynurenic acid level at 200 mg/kg, ip coadministered with 100 mg/kg kynurenine by in-vivo microdialysis measured within 25 mins post dose relative to untreated control; type: functional, organism-based
[2] = target: T1, Kynureninase (Rattus norvegicus) (UniProt P70712); test: Inhibition of kynureninase in rat liver homogenates assessed as effect on production of anthranilic acid up to 125 uM incubated for 30 mins by HPLC; type: tissue-based
T1 sequence (whole entry): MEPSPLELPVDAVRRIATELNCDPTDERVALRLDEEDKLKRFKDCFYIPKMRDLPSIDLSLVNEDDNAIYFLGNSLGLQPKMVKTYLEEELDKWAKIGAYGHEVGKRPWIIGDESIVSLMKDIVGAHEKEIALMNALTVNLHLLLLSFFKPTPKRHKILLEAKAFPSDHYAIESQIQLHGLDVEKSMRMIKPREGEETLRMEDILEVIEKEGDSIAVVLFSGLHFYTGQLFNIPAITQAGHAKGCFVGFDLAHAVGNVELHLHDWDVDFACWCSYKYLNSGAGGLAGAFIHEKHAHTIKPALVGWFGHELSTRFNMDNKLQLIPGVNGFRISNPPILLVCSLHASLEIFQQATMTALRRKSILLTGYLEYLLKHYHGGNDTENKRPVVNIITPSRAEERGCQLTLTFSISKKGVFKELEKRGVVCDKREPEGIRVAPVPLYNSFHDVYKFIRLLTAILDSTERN

[3] = target: T1, Kynureninase (Rattus norvegicus); test: Inhibition of kynureninase in rat liver homogenates assessed as effect on production of anthranilic acid at >125 uM incubated for 30 mins by HPLC; type: tissue-based
Rattus norvegicus [4] = test: Effect on extracellular kynurenic acid in rat brain dosed at 200 mg/kg, ip by in-vivo microdialysis measured for 6 hrs post dose (reference value: 1.55 +/- 0.05 pg/ml); type: functional; settings: route intraperitoneal
[5] = target: Kynurenine 3-monooxygenase (Rattus norvegicus) (UniProt O88867); test: Inhibition of kynurenine-3-hydroxylase in rat liver homogenates assessed as effect on production of 3-hydroxy kynurenine up to 125 uM incubated for 1 hr by HPLC; type: tissue-based
Kynurenine 3-monooxygenase (Rattus norvegicus), sequence (O88867 whole entry, looked up): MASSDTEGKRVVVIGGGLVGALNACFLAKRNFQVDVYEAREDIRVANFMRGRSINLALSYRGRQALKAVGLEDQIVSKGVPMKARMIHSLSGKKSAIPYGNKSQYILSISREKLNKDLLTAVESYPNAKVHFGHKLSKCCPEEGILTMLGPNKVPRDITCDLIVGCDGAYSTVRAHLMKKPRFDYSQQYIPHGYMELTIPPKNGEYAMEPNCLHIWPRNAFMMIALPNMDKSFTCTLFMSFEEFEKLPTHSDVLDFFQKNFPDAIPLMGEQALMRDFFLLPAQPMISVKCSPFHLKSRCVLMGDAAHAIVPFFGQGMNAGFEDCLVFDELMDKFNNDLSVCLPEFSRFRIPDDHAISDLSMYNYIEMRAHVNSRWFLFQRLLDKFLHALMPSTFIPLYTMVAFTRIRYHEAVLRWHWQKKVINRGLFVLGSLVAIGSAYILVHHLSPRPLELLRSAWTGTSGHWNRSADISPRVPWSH

Rattus norvegicus [6] = test: Inhibition of kynurenine-3-hydroxylase in rat brain assessed as increase in Increase in extracellular kynurenic acid level at 200 mg/kg, ip coadministered with 100 mg/kg kynurenine by in-vivo microdialysis measured up to 335 mins post dose relative to untreated control; type: functional
Rattus norvegicus [7] = test: Inhibition of kynurenine-3-hydroxylase in rat brain assessed as increase in Increase in extracellular kynurenic acid level at 200 mg/kg, ip coadministered with 100 mg/kg kynurenine by in-vivo microdialysis measured at 135 mins post dose relative to untreated control; type: functional, organism-based
[8] = target: Kynurenine 3-monooxygenase (Rattus norvegicus, UniProt O88867); test: (§1) Inhibition of kynurenine-3-hydroxylase in rat liver homogenates assessed as effect on production of 3-hydroxy kynurenine incubated for 1 hr by HPLC; type: tissue-based
Kynurenine 3-monooxygenase, sequence (O88867 whole entry): as the sequence (O88867 whole entry, looked up) above

[9] = target: Kynurenine 3-monooxygenase (Rattus norvegicus) (UniProt O88867); test: as §1; type: tissue-based
Rattus norvegicus [10] = test: Inhibition of kynurenine-3-hydroxylase in rat brain assessed as increase in Increase in extracellular kynurenic acid level at 200 mg/kg, ip coadministered with 100 mg/kg kynurenine by in-vivo microdialysis measured at 5 hrs post dose relative to untreated control; type: functional, organism-based

Compound: CC(=O)NCCCO[C@@H](CN)c1cc(Br)c(OS(=O)(=O)O)c(Br)c1 [IANTHELLAMIDE A]
- Activity (Rattus norvegicus [1]): Active
- inhibition [2]: inactive
- inhibition [3]: Active
- Activity (Rattus norvegicus [4]): 1.72 pg/µL
- inhibition [5]: Active
- fold change (FC) (Rattus norvegicus [6]): 20
- Activity (Rattus norvegicus [7]): Active
- IC50 [8]: 1.5 µM
- inhibition [9]: Dose-dependent effect
- Activity (Rattus norvegicus [10]): Active
